System: KRAS patient-derived spheroids with HUVEC/MSC, viability
Test: Anticancer human tumor 323965-272-R-J2-PDC patient-derived pancreatic carcinoma cell line growth inhibition [KRAS2]
Conditions: for IC50: curve of first compound; for viability, T/C: stronger effect = lower value
Procedure, shortened: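 Combination screen of spheroid viability in tumor-cell co-cultures with endothelial (HUVEC) and mesenchymal stem cell stroma. Each agent was tested in half-log dilutions, topping at clinical Cmax or at 10 microM without a known Cmax.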

[1] = second compound 0.1 µM, first compound 0.0316 µM
[2] = second compound 0.1 µM, first compound 0.1 µM
[3] = second compound 0.1 µM, first compound 0.316 µM
[4] = second compound 0.1 µM, first compound 1 µM
[5] = second compound 0.1 µM, first compound 3.16 µM
[6] = second compound 0.1 µM, first compound 10 µM
[7] = second compound 0.316 µM, first compound 0.0316 µM
[8] = second compound 0.316 µM, first compound 0.1 µM
[9] = second compound 0.316 µM, first compound 0.316 µM
[10] = second compound 0.316 µM, first compound 1 µM
[11] = second compound 0.316 µM, first compound 3.16 µM
[12] = second compound 0.316 µM, first compound 10 µM
[13] = second compound 1 µM, first compound 0.0316 µM
[14] = second compound 1 µM, first compound 0.1 µM
[15] = second compound 1 µM, first compound 0.316 µM
[16] = second compound 1 µM, first compound 1 µM
[17] = second compound 1 µM, first compound 3.16 µM
[18] = second compound 1 µM, first compound 10 µM
[19] = second compound 3.16 µM, first compound 0.0316 µM
[20] = second compound 3.16 µM, first compound 0.1 µM
[21] = second compound 3.16 µM, first compound 0.316 µM
[22] = second compound 3.16 µM, first compound 1 µM
[23] = second compound 3.16 µM, first compound 3.16 µM
[24] = second compound 3.16 µM, first compound 10 µM
[25] = second compound 10 µM, first compound 0.0316 µM
[26] = second compound 10 µM, first compound 0.1 µM
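Also: spheroids exposed to agents for 7 days.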
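For viability, T/C in this document: 100% = DMSO vehicle control viability.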

Structure (SMILES): COC(=O)c1ccc2c(C(=Nc3ccc(N(C)C(=O)CN4CCN(C)CC4)cc3)c3ccccc3)c(O)[nH]c2c1 + C=CC(=O)N1CCN(c2nc(=O)n(-c3c(C)ccnc3C(C)C)c3nc(-c4c(O)cccc4F)c(F)cc23)C(C)C1
- IC50 (second compound 0.1 µM): 1160 nM
- IC50 (second compound 0.316 µM): 536 nM
- IC50 (second compound 1 µM): 243 nM
- IC50 (second compound 3.16 µM): 196 nM
- IC50 (second compound 10 µM): < 31.6 nM
- viability, T/C [1]: 53.3%
- viability, T/C [2]: 55.6%
- viability, T/C [3]: 53.7%
- viability, T/C [4]: 50.7%
- viability, T/C [5]: 42.6%
- viability, T/C [6]: 19%
- viability, T/C [7]: 56%
- viability, T/C [8]: 52.4%
- viability, T/C [9]: 52.6%
- viability, T/C [10]: 46.8%
- viability, T/C [11]: 28.4%
- viability, T/C [12]: 16.6%
- viability, T/C [13]: 57.9%
- viability, T/C [14]: 57.6%
- viability, T/C [15]: 48%
- viability, T/C [16]: 28.2%
- viability, T/C [17]: 21.4%
- viability, T/C [18]: 16.8%
- viability, T/C [19]: 58%
- viability, T/C [20]: 56.6%
- viability, T/C [21]: 46.4%
- viability, T/C [22]: 27.9%
- viability, T/C [23]: 22.1%
- viability, T/C [24]: 13.8%
- viability, T/C [25]: 43.1%
- viability, T/C [26]: 32.9%
- viability, T/C (second compound 10 µM, first compound 0.316 µM): 29.6%
- viability, T/C (second compound 10 µM, first compound 1 µM): 18.8%
- viability, T/C (second compound 10 µM, first compound 3.16 µM): 17.8%
- viability, T/C (second compound 10 µM, first compound 10 µM): 12.5%

Structure (SMILES): CC(C)n1nc(-c2ccc3oc(N)nc3c2)c2c(N)ncnc21 + COc1cc2nc(C)nc(NC(C)c3cc(N)cc(C(F)(F)F)c3)c2cc1OC1CCOC1
- IC50 (second compound 0.1 µM): 1.83 nM
- IC50 (second compound 0.316 µM): 0.955 nM
- IC50 (second compound 1 µM): 0.736 nM
- IC50 (second compound 3.16 µM): 0.769 nM
- IC50 (second compound 10 µM): 1.41 nM
- viability, T/C (second compound 0.1 µM, first compound 0.000316 µM): 67.1%
- viability, T/C (second compound 0.1 µM, first compound 0.001 µM): 60.1%
- viability, T/C (second compound 0.1 µM, first compound 0.00316 µM): 40.8%
- viability, T/C (second compound 0.1 µM, first compound 0.01 µM): 26.4%
- viability, T/C [1]: 19%
- viability, T/C [2]: 14.5%
- viability, T/C (second compound 0.316 µM, first compound 0.000316 µM): 64.5%
- viability, T/C (second compound 0.316 µM, first compound 0.001 µM): 48.2%
- viability, T/C (second compound 0.316 µM, first compound 0.00316 µM): 37.1%
- viability, T/C (second compound 0.316 µM, first compound 0.01 µM): 23.8%
- viability, T/C [7]: 17.4%
- viability, T/C [8]: 15.7%
- viability, T/C (second compound 1 µM, first compound 0.000316 µM): 58.1%
- viability, T/C (second compound 1 µM, first compound 0.001 µM): 47.6%
- viability, T/C (second compound 1 µM, first compound 0.00316 µM): 33.1%
- viability, T/C (second compound 1 µM, first compound 0.01 µM): 24.8%
- viability, T/C [13]: 16.7%
- viability, T/C [14]: 14%
- viability, T/C (second compound 3.16 µM, first compound 0.000316 µM): 54.4%
- viability, T/C (second compound 3.16 µM, first compound 0.001 µM): 49.4%
- viability, T/C (second compound 3.16 µM, first compound 0.00316 µM): 30.2%
- viability, T/C (second compound 3.16 µM, first compound 0.01 µM): 17.7%
- viability, T/C [19]: 12.9%
- viability, T/C [20]: 11.8%
- viability, T/C (second compound 10 µM, first compound 0.000316 µM): 58.5%
- viability, T/C (second compound 10 µM, first compound 0.001 µM): 60.2%
- viability, T/C (second compound 10 µM, first compound 0.00316 µM): 32.3%
- viability, T/C (second compound 10 µM, first compound 0.01 µM): 18.4%
- viability, T/C [25]: 9.07%
- viability, T/C [26]: 8.86%

Structure (SMILES): COc1cc2nccc(Oc3ccc(NC(=O)C4(C(=O)Nc5ccc(F)cc5)CC4)cc3)c2cc1OC + C=CC(=O)N1CCN(c2nc(OCC3CCCN3C)nc3c2CCN(c2cccc4cccc(C)c24)C3)CC1CC#N
- IC50 (second compound 0.0316 µM): > 10000 nM
- IC50 (second compound 0.1 µM): > 10000 nM
- IC50 (second compound 0.316 µM): > 10000 nM
- IC50 (second compound 1 µM): > 10000 nM
- IC50 (second compound 3.16 µM): < 31.6 nM
- viability, T/C (second compound 0.0316 µM, first compound 0.0316 µM): 69%
- viability, T/C (second compound 0.0316 µM, first compound 0.1 µM): 71.3%
- viability, T/C (second compound 0.0316 µM, first compound 0.316 µM): 77.3%
- viability, T/C (second compound 0.0316 µM, first compound 1 µM): 76.8%
- viability, T/C (second compound 0.0316 µM, first compound 3.16 µM): 74.6%
- viability, T/C (second compound 0.0316 µM, first compound 10 µM): 80.3%
- viability, T/C [1]: 55.9%
- viability, T/C [2]: 62.1%
- viability, T/C [3]: 64.6%
- viability, T/C [4]: 67.3%
- viability, T/C [5]: 65.9%
- viability, T/C [6]: 64.3%
- viability, T/C [7]: 58.9%
- viability, T/C [8]: 59.6%
- viability, T/C [9]: 65.3%
- viability, T/C [10]: 68.8%
- viability, T/C [11]: 64.8%
- viability, T/C [12]: 70.1%
- viability, T/C [13]: 59.3%
- viability, T/C [14]: 63.5%
- viability, T/C [15]: 62.8%
- viability, T/C [16]: 69.9%
- viability, T/C [17]: 66.5%
- viability, T/C [18]: 58.5%
- viability, T/C [19]: 21.5%
- viability, T/C [20]: 20.1%
- viability, T/C [21]: 8.93%
- viability, T/C [22]: 3.74%
- viability, T/C [23]: 3.65%
- viability, T/C [24]: 0.28%

Reference: PubChem BioAssay AID1963869 (Molecular Pharmacology Branch, DTP, NCI, 2024)
